According to ChEMBL document CHEMBL3860069, “A new Suzuki synthesis of triphenylethylenes that inhibit aromatase and bind to estrogen receptors α and β” (Bioorg Med Chem, 2016):

Legend:
[1] = target: T1, Aromatase (Homo sapiens, UniProt P11511)
T1 sequence (P11511 whole entry): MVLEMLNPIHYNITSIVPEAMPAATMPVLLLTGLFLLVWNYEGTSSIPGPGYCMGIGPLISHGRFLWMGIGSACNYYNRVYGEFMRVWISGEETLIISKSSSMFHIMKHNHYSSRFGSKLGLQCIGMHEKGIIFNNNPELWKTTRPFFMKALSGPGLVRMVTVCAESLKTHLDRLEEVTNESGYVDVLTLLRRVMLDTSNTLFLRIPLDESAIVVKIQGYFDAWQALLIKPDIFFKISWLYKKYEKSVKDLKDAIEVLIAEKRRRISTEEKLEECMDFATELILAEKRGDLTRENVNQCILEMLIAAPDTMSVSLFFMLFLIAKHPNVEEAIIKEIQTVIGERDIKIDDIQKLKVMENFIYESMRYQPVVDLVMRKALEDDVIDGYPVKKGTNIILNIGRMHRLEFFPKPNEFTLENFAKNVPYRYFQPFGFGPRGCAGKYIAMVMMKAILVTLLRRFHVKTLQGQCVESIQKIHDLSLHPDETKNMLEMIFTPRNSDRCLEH
Description: Inhibition of recombinant human microsomal CYP19 using MFC as substrate measured after 30 mins by fluorometric analysis

[2] = target: T2, CYP19 (aromatase) (Homo sapiens, UniProt P11511); test: in vitro; conditions: recombinant human microsomal CYP19, probe MFC
T2 sequence (P11511 whole entry): T1 sequence (P11511 whole entry)
Description: Inhibition of recombinant human microsomal CYP19 at 50 uM using MFC as substrate measured after 30 mins by fluorometric analysis relative to control

[3] = target: T3, Estrogen receptor beta (Homo sapiens, UniProt Q92731)
Description: Displacement of fluorescent ES2 from recombinant human ERbeta after 2 hrs in absence of light by fluorometric analysis

[4] = target: T4, Estrogen receptor (Homo sapiens, UniProt P03372)
T4 sequence (P03372 whole entry): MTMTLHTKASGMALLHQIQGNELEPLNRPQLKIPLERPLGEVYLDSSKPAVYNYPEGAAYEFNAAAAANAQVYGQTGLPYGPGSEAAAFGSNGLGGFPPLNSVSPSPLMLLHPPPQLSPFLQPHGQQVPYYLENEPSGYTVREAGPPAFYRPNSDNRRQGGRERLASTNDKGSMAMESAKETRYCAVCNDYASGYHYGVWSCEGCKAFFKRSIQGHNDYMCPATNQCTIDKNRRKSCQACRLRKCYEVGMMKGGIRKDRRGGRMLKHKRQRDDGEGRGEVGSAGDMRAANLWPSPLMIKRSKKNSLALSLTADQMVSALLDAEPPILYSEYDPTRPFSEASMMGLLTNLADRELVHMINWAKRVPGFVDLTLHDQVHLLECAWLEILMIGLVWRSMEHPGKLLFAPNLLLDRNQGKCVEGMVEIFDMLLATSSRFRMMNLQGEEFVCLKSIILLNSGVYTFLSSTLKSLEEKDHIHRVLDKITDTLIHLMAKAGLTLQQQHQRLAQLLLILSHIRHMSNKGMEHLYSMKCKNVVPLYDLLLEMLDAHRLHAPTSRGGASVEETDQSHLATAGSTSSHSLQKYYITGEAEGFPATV
Description: Displacement of fluorescent ES2 from recombinant human ERalpha after 2 hrs in absence of light by fluorometric analysis

[5] = target: T3, Estrogen receptor beta; test: Displacement of fluorescent ES2 from recombinant human ERbeta at 100 uM after 2 hrs in absence of light by fluorometric analysis relative to control
[6] = target: T5, Estrogen receptor (Homo sapiens) (UniProt P03372); test: Displacement of fluorescent ES2 from recombinant human ERalpha at 100 uM after 2 hrs in absence of light by fluorometric analysis relative to control
T5 sequence (whole entry): T4 sequence (P03372 whole entry)

T3 sequence (Q92731 whole entry): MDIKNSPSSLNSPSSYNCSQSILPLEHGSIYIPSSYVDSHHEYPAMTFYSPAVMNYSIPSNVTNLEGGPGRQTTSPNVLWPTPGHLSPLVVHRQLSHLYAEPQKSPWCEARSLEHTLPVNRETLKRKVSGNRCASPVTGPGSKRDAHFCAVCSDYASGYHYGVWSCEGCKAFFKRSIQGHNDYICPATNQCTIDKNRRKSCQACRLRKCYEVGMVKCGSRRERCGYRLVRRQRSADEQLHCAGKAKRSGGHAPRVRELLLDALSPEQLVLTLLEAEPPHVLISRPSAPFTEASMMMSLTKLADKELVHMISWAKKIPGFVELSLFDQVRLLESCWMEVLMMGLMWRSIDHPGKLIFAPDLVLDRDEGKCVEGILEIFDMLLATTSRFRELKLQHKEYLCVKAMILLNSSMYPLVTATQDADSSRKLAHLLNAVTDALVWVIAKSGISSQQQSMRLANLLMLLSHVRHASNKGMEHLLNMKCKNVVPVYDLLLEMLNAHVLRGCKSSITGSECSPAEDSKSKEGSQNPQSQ

Row | SMILES | IC50 [1] | inhibition at 0.5 h, 50 µM [2] | EC50 [3] | EC50 [4] | inhibition [5] | inhibition [6]
1 | CC(=C(c1ccc(N)cc1)c1ccc(NCC(N)=O)cc1)c1ccc([N+](=O)[O-])cc1 | 645 nM | > 90% | 218 nM | 164 nM | – | –
2 | CC/C(=C(/c1ccc(O)cc1)c1ccc(OCCN)cc1)c1ccccc1 | – | > 90% | – | – | – | –
3 | CCC(=C(c1ccc(N)cc1)c1ccc(NCC(N)=O)cc1)c1ccc([N+](=O)[O-])cc1 | 287 nM | > 90% | 346 nM | 451 nM | – | –
4 | CC(=C(c1ccc(O)cc1)c1ccc(OCC(N)=O)cc1)c1ccc([N+](=O)[O-])cc1 | 9720 nM | > 90% | – | – | 0% | 0%
5 | CC/C(=C(/c1ccc(O)cc1)c1ccc(OCC(N)=O)cc1)c1ccccc1 | 9260 nM | > 90% | – | – | 71% | 57%
6 | CC/C(=C(\c1ccc(O)cc1)c1ccc(OCCN)cc1)c1ccccc1 | – | > 90% | – | – | – | –
7 | CC(=C(c1ccc(N)cc1)c1ccc(N)cc1)c1ccc([N+](=O)[O-])cc1 | – | > 90% | – | – | – | –
8 | CCC(=C(c1ccc(O)cc1)c1ccc(OCC(N)=O)cc1)c1ccc([N+](=O)[O-])cc1 | – | 76% | – | – | 0% | 0%
9 | CCC(=C(c1ccc(N)cc1)c1ccc(N)cc1)c1ccc(N)cc1 | – | > 90% | – | – | 76% | 25%
10 | CC(=C(c1ccc(N)cc1)c1ccc(N)cc1)c1ccc(N)cc1 | – | > 90% | – | – | 77% | 31%

More lines, now with the values ahead:

Row | IC50 [1] | inhibition at 0.5 h, 50 µM [2] | EC50 [3] | EC50 [4] | inhibition [5] | inhibition [6] | SMILES
11 | – | > 90% | – | – | – | – | CC(=C(c1ccc(O)cc1)c1ccc(O)cc1)c1ccc(N)cc1
12 | – | 75% | – | – | 55% | 19% | CC(=C(c1ccc(O)cc1)c1ccc(O)cc1)c1ccc([N+](=O)[O-])cc1
13 | – | > 90% | – | – | – | – | CCC(=C(c1ccc(O)cc1)c1ccc(O)cc1)c1ccccc1
14 | – | > 90% | – | – | – | – | CCC(=C(c1ccc(N)cc1)c1ccc(N)cc1)c1ccc([N+](=O)[O-])cc1
15 | – | > 90% | – | – | – | – | CCC(=C(c1ccc(O)cc1)c1ccc(OCCN)cc1)c1ccccc1
16 | – | > 90% | – | – | – | – | CCC(=C(c1ccc(O)cc1)c1ccc(O)cc1)c1ccc(N)cc1
17 | – | 78% | – | – | 66% | 40% | CCC(=C(c1ccc(O)cc1)c1ccc(O)cc1)c1ccc([N+](=O)[O-])cc1
